Measurements from US12618847B2 (Purdue Research Foundation, priority 2020, dated 2026).
Where no end group is shown, it is not given here. [ ]: non-standard residue; d: D form. Phe(4-Cl) = N[C@@H](Cc1ccc(Cl)cc1)C(=O)O

How the values were obtained:
20S CP = 20S CP (Homo sapiens, UniProt P20618+P28074); assay: Fluorescence hydrolysis of probes by purified 20S CP (plate reader); assay type: biochemical; details: 30 μM probe
Method: The peptide recognition sequence used was based on the commercially available 4-mer AMC probe (FIG. 1A), specifically Leu-Leu-Val-Tyr (SEQ ID NO: 1), to generate TAS1 (FIG. 1B). To determine if TAS1 had any enhanced sensitivity, the two probes were compared under the same conditions with purified 20S CP. Briefly, the probes were incubated in triplicate at 10 and 30 μM with 9 nM […] at 37° C. The change in fluorescence was monitored for two hours and the endpoint values were averaged and graphed for comparison (FIG. 1C). Because the two fluorophores have different excitation and emission wavelengths, the two experiments were performed separately but using the same conditions for the plate reader (i.e. gain, number of flashes, settling time, etc.). […] Since, unlike Suc-LLVY-AMC (SEQ ID NO: 1), TAS1 has the potential to have more than one cleavage site which could result in an increase in fluorescence (on either side of Rh110), we confirmed that the increase in signal is only from the recognition and cleavage of the peptide at the Tyr moiety by analyzing the 30 μM TAS1 samples by LC/MS (FIG. 2).
With these new peptide sequences in hand, we returned to incorporating the Rh110-peptoid moiety and to compare the cleavage of TAS1-3 with the 20S CP. We incubated all three probes at various concentrations with 9 nM 20S CP and monitored the change in fluorescence using a microplate reader. […] In order to compare the three probes, we fit a linear regression for the points from 10-60 min for 30 μM of each probe to obtain a rate for the change in fluorescence (Table 1). Of the three, TAS1 was hydrolyzed the quickest, although the slope for TAS2 was similar. […] To confirm that the change in fluorescence was due to amide bond cleavage at the expected site on the peptide, we analyzed the samples at a concentration of 30 μM by LC/MS (FIG. 3).

A549 cells = assay: Probe cleavage in live A549 cells with or without MG-132 pretreatment; assay type: cell-based; details: 10 μM probe, 5,000 cells/well, 90 min
Method: We next sought to determine if the TAS probes would be suitable for cell-based assays. To accomplish this, A549 cells were plated at a density of 5,000 cells/well in a black 96 well plate with a black bottom. After allowing the cells to adhere to the plate, the samples were washed with PBS three times then dosed with 10 μM of each probe in modified KRBH buffer. The change in fluorescence was recorded on a microplate reader for 90 min. After allowing the signal to equilibrate for […], each sample was set to zero and the future time points were scaled accordingly. As was done with the biochemical data, a linear regression was fit to each set of data. From the slope, it is observed that the rate for TAS2 was the highest. To determine the in-cell selectivity, a set of samples pretreated with MG-132 (10 μM), a proteasome inhibitor, was included for each probe. These samples were pre-incubated with MG-132 in cell culture media for one hour before washing with PBS and dosing with each probe in modified KRBH buffer. […] To ensure this decrease was not a consequence of cell death, cells were treated in the same way and analyzed using Cell-Titer Glo.

A498 = assay: TAS2 rate of hydrolysis in live cells; assay type: cell-based; details: A498, TAS2 10 μM, 5,000 cells/well
Method: (§1) To compare these cells lines, each was plated at the same density of 5,000 cells/well in a black 96 well plate—for adherent cells lines A498, SK-MEL-2, MEL-92.1, SH-SY5Y and HEK293T, the cells were allowed to adhere overnight before using in the assay; MM.1R cells were plated and used directly after. Samples were incubated with either DMSO or TAS2 (10 μM) for 15 min, washed with PBS three times before putting the plate in a microplate reader to record the fluorescence intensity over 90 min. The experiment was performed in technical triplicate and experimental duplicate for each cell line and the rate of hydrolysis of TAS-2 was determined, Table 2.

HEK-293T = assay: TAS2 rate of hydrolysis in live cells; assay type: cell-based; details: TAS2 10 μM, 5,000 cells/well
Method: as §1

MEL-92.1 = assay: TAS2 rate of hydrolysis in live cells; assay type: cell-based; details: MEL-92.1, TAS2 10 μM, 5,000 cells/well
Method: as §1

MM.1R = assay: TAS2 rate of hydrolysis in live cells; assay type: cell-based; details: TAS2 10 μM, 5,000 cells/well
Method: as §1

SH-SY5Y = assay: TAS2 rate of hydrolysis in live cells; assay type: cell-based; details: TAS2 10 μM, 5,000 cells/well
Method: as §1

SK-MEL-2 = assay: TAS2 rate of hydrolysis in live cells; assay type: cell-based; details: SK-MEL-2, TAS2 10 μM, 5,000 cells/well
Method: as §1

Rate of Hydrolysis (20S CP; 9 nM purified 20S CP, linear regression 10-60 min): 63.8 ΔRFU/min
Substance: TAS2: Rh110-based peptide/peptoid hybrid probe with Phe(4-Cl) as Tyr substitute (LLV[Phe(4-Cl)]; also: Rh110-based probe, place not given here, peptide/peptoid hybrid)
Cleavage products after incubation with 20S CP (LC/MS) (20S CP; LC/MS): only produced the expected cleavage products
Rate of probe cleavage in A549 cells (slope) (A549 cells): highest
Rate of Hydrolysis (A498): 39.6 ± 4.8 ΔRFU/min
Rate of Hydrolysis (HEK-293T): 6.7 ± 3.2 ΔRFU/min
Rate of Hydrolysis (MEL-92.1): 16.4 ± 2.6 ΔRFU/min
Rate of Hydrolysis (MM.1R): 81.6 ± 25.5 ΔRFU/min
Rate of Hydrolysis (SH-SY5Y): 5.8 ± 0.4 ΔRFU/min
Rate of Hydrolysis (SK-MEL-2): 12.1 ± 1.3 ΔRFU/min
